From patent publication EP3797781A1, “USE OF EC-7072 AND SYNERGIC COMPOSITIONS THEREOF IN TREATMENT OF CHRONIC LYMPHOCYTIC LEUKEMIA” (priority 2019, dated 2021)

System: isolated leukemia cells from patients with CLL
Assay: qPCR analysis of gene expression in isolated leukemia cells
Format: cell-based, human
Conditions: 6 hours
Protocol: Isolated leukemia cells from patients with CLL were incubated with EC-7072 (200 nM) or DMSO for 6 hours. Total RNA was extracted using RNeasy Mini Kit (Qiagen). 2 µg total RNA were used for cDNA synthesis using High-Capacity cDNA Reverse Transcription Kit (Applied Biosystems). Quantitative RT-PCR was performed using SYBR Green PCR Master Mix (Applied Biosystems) in a 7300 Real-Time PCR System and each sample was analyzed in triplicate. Table 1. Primers used in qPCR
Expression of BCR-related genes was analyzed by qPCR in isolated CLL leukemia cells (n = 6) exposed to 200 nM EC-7072 for 6 hours (Figure 6A).
Expression of relevant genes that regulate apoptosis in CLL was analyzed by qPCR in isolated leukemia cells from patients with CLL (n = 6) exposed to 200 nM EC-7072 for 6 hours, to obtain the mean relative expression to the control (DMSO) control condition (Figure 6D).
The dysregulation of BCL2 expression in primary CLL by EC-7072 was evaluated by: • (i) incubating isolated CLL cells (n = 6) from patients with CLL following treatment with EC-7072 (200 nM) for 6 hours and extracting total RNA. Relative expression of BLC2 was determined by qPCR to obtain the mean relative expression to the control (DMSO) condition (Figure 6F); • (ii) incubating isolated CLL cells (n = 6) following treatment with 200 nM EC-7072 for 12 and 18 hours. BCL2 levels were evaluated by intracellular flow cytometry (Figure 6G); • (iii) incubating isolated T cells (n = 3) from patients with CLL following treatment with EC-7072 (200 nM) for 6 hours and extracting total RNA. Relative expression of BLC2 was determined by qPCR to obtain the mean relative expression to the control (DMSO) condition (Figure 6H); • (iv) incubating PBMCs (Figure 6I) and isolated T cells (Figure 6J) from patients with CLL (n = 3) following treatment with 200 nM EC-7072 for 24 hours. T-cell death and apoptosis were assessed by DiOC6(3)/PI staining to obtain percentages of viable [DiOC6(3)^+] cells and the mean percentages of apoptotic [DiOC6(3)^low PI^-] and dead [PI^+] cells. […]

SMILES: CO[C@@H]([C@@H]1Cc2cc3cc(O[C@H]4C[C@@H](O[C@H]5C[C@@H](O)[C@H](O)[C@@H](C)O5)[C@H](O)[C@@H](C)O4)c(C)c(O)c3c(O)c2C(=O)[C@H]1O[C@H]1C[C@@H](O[C@H]2C[C@@H](O[C@H]3C[C@](C)(O)[C@H](O)[C@@H](C)O3)[C@@H](O)[C@@H](C)O2)[C@H](O)[C@@H](C)O1)[C@@H](O)C(C)=O [EC-7072, mithramycin SK]
- expression of genes required for functional BCR signaling (CD79B, SYK, LYN, PIK3CD, PLCG2, CARD11) (200 nM, RNA-seq, validated by qPCR (n = 6)): broad downregulation
- gene expression of BCL2 (200 nM, isolated CLL cells (n = 6)): significantly downregulated
- expression of BCL2 upon BCR activation (EC-7072 200 nM in combination with α-IgM (10 µg/mL), n = 4): restore the expression of BCL2 to basal levels
